# Assay: Ex vivo release of therapeutic agent from insert into phosphate buffer, UV scanning spectrophotometer
# Format: physicochemical
# Conditions: drug 20%, phosphate buffer pH 7, 37° C.
# Protocol: Ocular Daily Wear is defined by FDA Class II CFR 866.5925 products currently indicated for ocular use and sclera tissue contact.
# To begin testing, a UV scanning spectrophotometer concentration calibration curve for the therapeutic agent was established. The insert was prepared to the specification in the particular Table, and the time duration sample plan for measurement was determined. The insert was weighed to establish T=0. The insert was immersed in phosphate buffer of a fixed constant volume. A mean body temperature of 37° C. (e.g., from about 36.5° C. to about 37.5° C.) was simulated for the identified time interval. The insert was transferred and immersed at the end of each time period into a new phosphate buffer test container. The simulated mean 37° C.-body temperature was continued to next time interval. The UV scanning spectrophotometer data was generated for each time interval sample. The release rate was calculated versus time for the therapeutic agent, and graphical plots of the data were generated.
# [1] = Table 8, Rod, 2 Component: EVA (40% vinyl acetate) 80%, no PEO
# [2] = Table 8, In Device, 3 Component: EVA (40% vinyl acetate) 40%, PEO 40%
# [3] = Table 9, In Device, 3 Component: EVA (40% vinyl acetate) 40%, PEO 40%
compound,measurement,setting,value
CC(=O)OCC(=O)[C@@]1(O)[C@H](C)C[C@H]2[C@@H]3CCC4=CC(=O)C=C[C@]4(C)[C@@]3(F)[C@@H](O)C[C@@]21C [Dexamethasone 21 Acetate],1 Day % Release,[1],1.89%
C[C@@H]1C[C@H]2[C@@H]3CCC4=CC(=O)C=C[C@]4(C)[C@@]3(F)[C@@H](O)C[C@]2(C)[C@@]1(O)C(=O)COP(=O)(O)O [Dexamethasone Phosphate],1 Day % Release,[2],82.7%
same,2 Day % Release,[2],85.3%
same,1 Day % Release,"Table 8, In Device, 3 Component: EVA (40% vinyl acetate) 40%, PEO 40%, listed as dexamethasone phosphate",82.7%
same,1 Day % Release,[1],3.39%
"CN(C)CC/C=C1/c2ccccc2COc2ccc(CC(=O)O)cc21 [Olopatadine FB, Olopatadine]",1 Day % Release,[3],35%
same,2 Day % Release,[3],43%

# Source: patent publication US12257184B2, “Ocular device and drug delivery system, with case” (priority 2019, dated 2025)
